# Reference: ChEMBL document CHEMBL2440076, “New triarylpyrazoles as broad-spectrum anticancer agents: design, synthesis, and biological evaluation” (Eur J Med Chem, 2013)
# Tests used:
# Format in all cases: functional
# [1] = system: RXF 393; experiment: Growth inhibition of human RXF393 cells assessed as cell growth at 3X10'-6 M after 48 hrs by sulforhodamine B assay; conditions: RXF 393, 48 h, read-out: Activity
# [2] = system: CCRF-CEM; experiment: Growth inhibition of human CCRF-CEM cells assessed as cell growth at 3X10'-7 M after 48 hrs by sulforhodamine B assay; conditions: read-out: Activity
# [3] = system: NCI-H522; experiment: Growth inhibition of human NCI-H522 cells assessed as cell growth at 3X10'-7 M after 48 hrs by sulforhodamine B assay; conditions: NCI-H522, 48 h, read-out: Activity
# [4] = system: SK-MEL-28; experiment: Growth inhibition of human SK-MEL-28 cells assessed as cell growth at 3X10'-6 M after 48 hrs by sulforhodamine B assay; conditions: SK-MEL-28, 48 h, read-out: Activity
# [5] = system: ACHN; experiment: Growth inhibition of human ACHN cells assessed as cell growth at 3X10'-9 M after 48 hrs by sulforhodamine B assay; conditions: read-out: Activity
# [6] = system: HCT-116; experiment: Growth inhibition of human HCT116 cells assessed as cell growth at 3X10'-5 M after 48 hrs by sulforhodamine B assay; conditions: HCT-116, 48 h, read-out: Activity
# [7] = system: SF-539; experiment: Growth inhibition of human SF539 cells assessed as cell growth at 3X10'-5 M after 48 hrs by sulforhodamine B assay; conditions: SF-539, 48 h, read-out: Activity
# [8] = system: HOP-62; experiment: Growth inhibition of human HOP62 cells assessed as cell growth at 3X10'-9 M after 48 hrs by sulforhodamine B assay; conditions: HOP-62, 48 h, read-out: Activity
# [9] = system: RPMI-8226; experiment: Growth inhibition of human RPMI8226 cells assessed as cell growth at 3X10'-8 M after 48 hrs by sulforhodamine B assay; conditions: RPMI-8226, 48 h, read-out: Activity
# [10] = system: SK-MEL-2; experiment: Growth inhibition of human SK-MEL-2 cells assessed as cell growth at 3X10'-6 M after 48 hrs by sulforhodamine B assay; conditions: SK-MEL-2, 48 h, read-out: Activity
# [11] = system: MDA-MB-468; experiment: Growth inhibition of human MDA-MB-468 cells assessed as cell growth at 3X10'-9 M after 48 hrs by sulforhodamine B assay; conditions: MDA-MB-468, 48 h, read-out: Activity
# [12] = system: SF-539; experiment: Growth inhibition of human SF539 cells assessed as cell growth at 3X10'-9 M after 48 hrs by sulforhodamine B assay; conditions: SF-539, 48 h, read-out: Activity
# [13] = system: HOP-92; experiment: Growth inhibition of human HOP92 cells assessed as cell growth at 3X10'-6 M after 48 hrs by sulforhodamine B assay; conditions: HOP-92, 48 h, read-out: Activity
# [14] = system: UACC-62; experiment: Growth inhibition of human UACC62 cells assessed as cell growth at 3X10'-6 M after 48 hrs by sulforhodamine B assay; conditions: UACC-62, 48 h, read-out: Activity
# [15] = system: UACC-62; experiment: Growth inhibition of human UACC62 cells assessed as cell growth at 3X10'-5 M after 48 hrs by sulforhodamine B assay; conditions: UACC-62, 48 h, read-out: Activity
# [16] = system: UO-31; experiment: Growth inhibition of human UO31 cells assessed as cell growth at 3X10'-9 M after 48 hrs by sulforhodamine B assay; conditions: UO-31, 48 h, read-out: Activity
# [17] = system: NCI-H522; experiment: Growth inhibition of human NCI-H522 cells assessed as cell growth at 3X10'-6 M after 48 hrs by sulforhodamine B assay; conditions: NCI-H522, 48 h, read-out: Activity
# [18] = system: MDA-MB-435; experiment: Growth inhibition of human MDA-MB-435 cells assessed as cell growth at 3X10'-5 M after 48 hrs by sulforhodamine B assay; conditions: MDA-MB-435, 48 h, read-out: Activity
# [19] = system: HL-60(TB); experiment: Growth inhibition of human HL-60(TB) cells assessed as cell growth at 3X10'-5 M after 48 hrs by sulforhodamine B assay; conditions: HL-60, 48 h, read-out: Activity
# [20] = system: NCI-H460; experiment: Growth inhibition of human NCI-H460 cells assessed as cell growth at 3X10'-6 M after 48 hrs by sulforhodamine B assay; conditions: NCI-H460, 48 h, read-out: Activity
# [21] = system: NCI-H226; experiment: Growth inhibition of human NCI-H226 cells assessed as cell growth at 3X10'-9 M after 48 hrs by sulforhodamine B assay; conditions: NCI-H226, 48 h, read-out: Activity
# [22] = system: TK-10; experiment: Growth inhibition of human TK10 cells assessed as cell growth at 3X10'-8 M after 48 hrs by sulforhodamine B assay; conditions: TK-10, 48 h, read-out: Activity
# [23] = system: SR; experiment: Growth inhibition of human SR cells assessed as cell growth at 3X10'-5 M after 48 hrs by sulforhodamine B assay; conditions: read-out: Activity
# [24] = system: OVCAR-4; experiment: Growth inhibition of human OVCAR4 cells assessed as cell growth at 3X10'-5 M after 48 hrs by sulforhodamine B assay; conditions: OVCAR-4, 48 h, read-out: Activity
# [25] = system: NCI-H522; experiment: Growth inhibition of human NCI-H522 cells assessed as cell growth at 3X10'-9 M after 48 hrs by sulforhodamine B assay; conditions: NCI-H522, 48 h, read-out: Activity
# [26] = system: SK-MEL-2; experiment: Growth inhibition of human SK-MEL-2 cells assessed as cell growth at 3X10'-8 M after 48 hrs by sulforhodamine B assay; conditions: SK-MEL-2, 48 h, read-out: Activity
# [27] = system: NCI-H460; experiment: Growth inhibition of human NCI-H460 cells assessed as cell growth at 3X10'-7 M after 48 hrs by sulforhodamine B assay; conditions: NCI-H460, 48 h, read-out: Activity
# [28] = system: HCT-15; experiment: Growth inhibition of human HCT15 cells assessed as cell growth at 3X10'-8 M after 48 hrs by sulforhodamine B assay; conditions: HCT-15, 48 h, read-out: Activity
# [29] = system: NCI-H322M; experiment: Growth inhibition of human NCI-H322M cells assessed as cell growth at 3X10'-5 M after 48 hrs by sulforhodamine B assay; conditions: read-out: Activity
# [30] = system: NCI-H522; experiment: Growth inhibition of human NCI-H522 cells assessed as cell growth at 3X10'-5 M after 48 hrs by sulforhodamine B assay; conditions: NCI-H522, 48 h, read-out: Activity
# [31] = system: SNB-75; experiment: Growth inhibition of human SNB75 cells assessed as cell growth at 3X10'-6 M after 48 hrs by sulforhodamine B assay; conditions: SNB-75, 48 h, read-out: Activity
# [32] = system: COLO 205; experiment: Growth inhibition of human COLO205 cells assessed as cell growth at 3X10'-6 M after 48 hrs by sulforhodamine B assay; conditions: COLO 205, 48 h, read-out: Activity
# [33] = system: MCF7; experiment: Growth inhibition of human MCF7 cells assessed as cell growth at 3X10'-6 M after 48 hrs by sulforhodamine B assay; conditions: MCF7, 48 h, read-out: Activity
# [34] = system: NCI-H460; experiment: Growth inhibition of human NCI-H460 cells assessed as cell growth at 3X10'-9 M after 48 hrs by sulforhodamine B assay; conditions: NCI-H460, 48 h, read-out: Activity
# [35] = system: IGROV-1; experiment: Growth inhibition of human IGROV1 cells assessed as cell growth at 3X10'-9 M after 48 hrs by sulforhodamine B assay; conditions: IGROV-1, 48 h, read-out: Activity
# [36] = Growth inhibition of human NCI-ADR-RES cells assessed as cell growth at 5X10'-6 M after 48 hrs by sulforhodamine B assay; conditions: read-out: Activity
Compound,growth at 3 µM [1] [%],growth at 0.3 µM [2] [%],growth at 0.3 µM [3] [%],growth at 3 µM [4] [%],growth at 0.003 µM [5] [%],growth at 30 µM [6] [%],growth at 30 µM [7] [%],growth at 0.003 µM [8] [%],growth at 0.03 µM [9] [%],growth at 3 µM [10] [%],growth at 0.003 µM [11] [%],growth at 0.003 µM [12] [%],growth at 3 µM [13] [%],growth at 3 µM [14] [%],growth at 30 µM [15] [%],growth at 0.003 µM [16] [%],growth at 3 µM [17] [%],growth at 30 µM [18] [%],growth at 30 µM [19] [%],growth at 3 µM [20] [%],further results
O=C(Nc1cccc(-n2cc(-c3ccncc3)c(-c3ccc(Cl)c(O)c3)n2)c1)Nc1ccc(Cl)c(Cl)c1,16,90,97,25,103,-39,-34,96,102,-11,90,92,-26,14,-53,86,14,-38,1,2,growth at 0.003 µM [21]: 98%; growth at 0.03 µM [22]: 103%; growth at 30 µM [23]: -5%; growth at 30 µM [24]: 17%; growth at 0.003 µM [25]: 96%; growth at 0.03 µM [26]: 106%; growth at 0.3 µM [27]: 95%; growth at 0.03 µM [28]: 103%; growth at 30 µM [29]: 11%; growth at 30 µM [30]: -13%; growth at 3 µM [31]: 20%; growth at 3 µM [32]: 61%; growth at 3 µM [33]: 8%; growth at 0.003 µM [34]: 108%; growth at 0.003 µM [35]: 103%
O=C(Nc1cccc(-n2cc(-c3ccncc3)c(-c3ccc(Cl)c(O)c3)n2)c1)Nc1cccc(C(F)(F)F)c1,49,94,98,55,103,-34,-43,97,98,35,95,100,-13,33,-67,89,25,-19,1,16,growth at 0.003 µM [21]: 98%; growth at 0.03 µM [22]: 98%; growth at 30 µM [23]: -9%; growth at 30 µM [24]: 16%; growth at 0.003 µM [25]: 95%; growth at 0.03 µM [26]: 98%; growth at 0.3 µM [27]: 94%; growth at 0.03 µM [28]: 100%; growth at 30 µM [29]: 19%; growth at 30 µM [30]: -13%; growth at 3 µM [31]: 53%; growth at 3 µM [32]: 90%; growth at 3 µM [33]: 26%; growth at 0.003 µM [34]: 99%; growth at 0.003 µM [35]: 98%
O=C(Nc1cccc(-n2cc(-c3ccncc3)c(-c3ccc(Cl)c(O)c3)n2)c1)Nc1ccc(Cl)c(C(F)(F)F)c1,-28,80,82,1,97,-43,-37,97,89,-41,89,99,-30,-48,-83,94,-11,-54,6,4,growth at 0.003 µM [21]: 88%; growth at 0.03 µM [22]: 103%; growth at 30 µM [23]: -7%; growth at 30 µM [24]: 9%; growth at 0.003 µM [25]: 96%; growth at 0.03 µM [26]: 113%; growth at 0.3 µM [27]: 94%; growth at 0.03 µM [28]: 95%; growth at 30 µM [29]: -58%; growth at 30 µM [30]: -55%; growth at 3 µM [32]: 42%; growth at 3 µM [33]: 2%; growth at 0.003 µM [34]: 103%; growth at 0.003 µM [35]: 98%
O=C(Nc1cccc(-n2cc(-c3ccncc3)c(-c3ccc(Cl)c(O)c3)n2)c1)Nc1cc(C(F)(F)F)cc(C(F)(F)F)c1,,,,,,,,,,,,,,,,,,,,,growth at 5 µM [36]: 1%
O=C(Nc1cccc(-n2cc(-c3ccncc3)c(-c3ccc(Cl)c(O)c3)n2)c1)c1ccc(N2CCOCC2)c(C(F)(F)F)c1,,,,,,,,,,,,,,,,,,,,,growth at 5 µM [36]: 35%
